In patent US20040039047A1 (priority 1998, published 2004):

Columns and labels:
[1] = test system: human epidennoid cells, virally infected with HSV-2
[2] = test system: human epidennoid cells, virally infected with HSV-2; details: cited from earlier work
[3] = test system: human epidennoid cells, virally infected with HSV-2; details: cited from earlier work; remark: listed apart in the source

CC(=O)OC[C@]12CCC(C)=C[C@H]1O[C@@H]1[C@H](O)[C@@H](OC(C)=O)[C@@]2(C)[C@]12CO2 [DAS]
Trichothecene in vitro concentration, Cytotoxic Hi [1]: 200 ng/mL | Trichothecene in vitro concentration, Cytotoxic Lo [1]: 6 ng/mL | Trichothecene in vitro concentration, Inhibitory 80% [2]: 4.0 ng/mL | Trichothecene in vitro concentration, Inhibitory 100% [2]: 5.0 ng/mL | cell viability [3]: Neither reduced cell viability
